In patent US11718650B2, “Immunogenic peptides and their use in immune disorders” (IMCYSE SA, priority 2006, dated 2023):
No end group written: not given here.

Tests used:
[1] = system: p21-35-loaded Wehi cells; test: derivatisation of T cell clones after immunisation, screening for apoptosis of p21-35-loaded Wehi cells; assay type: in vivo, mouse
Experimental: Derivatisation of regulatory T cell clones. BALB/c mice were immunised by 3 footpad injections of 20 μg/ml peptide mp21-35Asn in alum at 2 weeks intervals. Ten days after the last injection, spleen CD4+ T cells were stimulated with T cell depleted splenocytes from naïve mice in the presence of peptide mp21-35Asn. After 10 days, cells were restimulated in the same conditions but with 10 U/ml mouse II-2 (Roche). After the fifth restimulation, T cells were subcloned in the presence of 10 U/ml IL-2 by limiting dilution. The subsequent specific stimulations were carried out in the presence of 20 U/ml mouse IL-2. The G121 T cell line was derived as previously described (Janssens et al. (2003) J. Immunol. 171, 4604-4612.
T cell clones were derived for phenotypic analysis from the spleen of mice injected with either mp21-35Asn in alum, mp21-35Asn in CFA/IFA (complete or incomplete Freund adjuvant), Der p 2 or saline as a control. A total of 17 clones were obtained, which expansion was fully dependent of addition of IL-2. These clones were maintained at rest for 10 days before assessing expression of CD25. Positive clones were then screened for their capacity to induce apoptosis of p21-35-loaded Wehi cells using annexin V binding as readout.

[2] = system: WEHI cells; test: apoptosis of peptide-loaded WEHI cells by cytolytic T cell clones, with inhibitors; assay type: cell-based, mouse; conditions: two CFSE-labelled populations, G121 Treg, 18 hours
Experimental: For inhibition of GZ-B activity, Z-AAD-CMK (Calbiochem) or 3,4-dichloroiso-coumarin (DCIC) (SIGMA) were added at indicated concentrations during all the co-culture period.
Experiments were carried out with p21-35-loaded CD11c dendritic (FIG. 13b: left panel) or WEHI cells (FIG. 13b: right panel). Upon incubation with R3TB7 virtually all dendritic cells (DC) or Wehi cells were induced into apoptosis as measured by caspase 3 activation.
Apoptosis can be induced by either the Fas-FasL pathway or by secretion of cytotoxic granules containing granzymes. Attempts were made to inhibit each of these pathways. Addition of increasing concentrations of an antibody towards FasL, or of granzyme B inhibitors, to a cell culture containing p21-35 loaded WEHI cells and a cytolytic T cell clone, increased the number of surviving WEHI cells in a dose-dependent manner (FIG. 13c). In a number of experiments it was shown that the anti-FasL antibody restored up to 80% of WEHI cell survival.
To further ascertain that APC lysis required direct contact with cytolytic T cells through MHC class II presentation of p21-35, an experiment was carried out in which two identical populations of Wehi cells were loaded with either p21-35 or with an irrelevant peptide (p71-85). These two populations could be distinguished by differential CFSE labelling. It can be seen from FIG. 13e that, while WEHI cells presenting p21-35 were fully lysed, only 40% of p71-85-loaded cells were affected.

[3] = system: WEHI cells; test: T cell clones from mice immunised with gp75-targeted Der p 1 peptides, lysis of WEHI cells; assay type: in vivo, mouse; conditions: 20 μg SC on aluminium hydroxide, three injections
Experimental: Groups of BALB/c mice were immunised subcutaneously (20 μg) with the experimental peptide [SEQ ID. NO: 10] or the control peptide [SEQ ID, NO: 11] adsorbed onto aluminium hydroxide. Three injections were performed at 2-week intervals. Ten days after the last immunisation, mice were sacrificed and CD4+ T cells prepared from the spleen using magnetic beads, CD4+ T cells (2×10^6 cells) were then stimulated in vitro by the Der p 1 T cell epitope (20 μg) presented by adherent spleen cells serving as antigen-presenting cells.
Ten days after stimulation the number of specific T cell lines obtained in each group was calculated by limiting dilution analysis. Each cell line was evaluated for its capacity to lyse WEHI cells, a B cell line selected for its efficacy in antigen-presentation by MHC class-II determinants, as described in Example 6. Only cells obtained from animals immunised with the peptide containing the glutaredoxin consensus sequence had acquired the capacity to lyse WEHI cells, and lysis occurs only in the presence of the cognate Der p 1 T cell epitope.

[4] = system: BALB/c mice; test: T cell clones from BALB/c mice immunised with Der p 1 derived peptide; assay type: in vivo, mouse; conditions: 20 μg subcutaneous, 3 injections
Experimental: Two groups of BALB/c mice were immunised by the subcutaneous route with either 20 μg of peptide with a T cell epitope sequence of the allergen Der p1 (SNYCQIYPPNANKIR [SEQ ID. NO: 5]) or a modified version thereof CGFS SNYCQIYPPNANKIR [SEQ ID. NO: 7] having at the N-terminus the sequence CGFS [SEQ ID. NO: 6].
After 3 injections, mice were sacrificed and CD4+ T cells were purified from the spleen and cloned by limiting dilution. T cell clones obtained from mice immunised with the SNYCQIYPPNANKIR [SEQ ID. […] Mice immunised with the peptide CGFS SNYCQIYPPNANKIR [SEQ ID.

[5] = system: Treg clone specific for p21-35; test: oxidative metabolism (ROS, carboxy-H2DCFDA) of cognate Treg cells; assay type: cell-based, mouse; conditions: 20 μg/ml, 90 minutes
Experimental: A Treg clone (10^5 cells) specific for p21-35 was incubated for 90 minutes with PBS (FIG. 5, panel A), peptide p21-35 (20 μg/ml in 200 μl PBS; FIG. 5, panel B) or tert-butyl hydroperoxide (100 μM in PBS; FIG. 5, panel C), which is an inducer of Reactive Oxygen Species (ROS). Cells were then labelled for 30 minutes with carboxy-H2DCFDA (12 μM), a fluorogenic marker for ROS in live cells, and then analysed by flow cytometry.

[6] = system: CD4+ effector T cells; test: activation of CD4+ effector T cells from patients sensitised to Der p 2; assay type: cell-based, human
Excerpt: Chemokines involved in attracting T lymphocytes to the lung are not precisely identified. The cytolytic Tregs described here express CD103 but not CCR7, which should confer them with the capacity to migrate to inflamed tissues. Other chemokines such as CCR5 and CCR3 were not detected. […] In an experimental model of asthma, including peripheral sensitisation and allergen inhalation, it was shown that Tregs have the capacity to prevent and suppress both inflammatory infiltration and airway hyperreactivity, which are the hallmarks of bronchial asthma. An LPS-free recombinant form of a main allergen, Der p 2, was used, which is involved in a large proportion of patients suffering from allergic asthma.

[7] = system: BALB/c mice; test: beta-lactoglobulin allergy mouse model; assay type: in vivo
Experimental: BALB/c mice are immunised by 2 SC injections with 20 μg of the peptide of sequence CHGC AQKKIIAEK [SEQ ID. NO: 30] in alum. This is followed 15 days later by intraperitoneal sensitisation to BLG (5 μg in alum), on 2 occasions at a fortnight interval. Alternatively, peptide administration is given 15 days after IP sensitisation to BLG.
Hypersensitivity to BLG is verified in the mouse by assessing bronchial hyperreactivity after intranasal administration of BLG. All mice are submitted to intranasal administration of 10 μg of BLG in saline 10 days after the last injections. A control group is included in which intraperitoneal sensitisation is carried out without peptide immunisation.

[8] = system: regulatory T cell clones with cytolytic activity; test: activation of cytolytic regulatory T cell clones by peptide-loaded APC; assay type: cell-based; conditions: versus C-x-x-S counterpart
Experimental: Antigen-presenting cells were loaded with p21-35 in its native configuration [SEQ ID. NO: 2] or p21-35 in which serine in position 24 is substituted by cysteine […] [SEQ ID. NO: 29]. This substitution creates a redox moiety of the type C-x-x-C.
Several regulatory T cell clones with cytolytic activity were incubated with APC. […] The granzymes are two of the key players in induction of apoptosis of target cells.

[9] = system: BALB/c mice; test: adoptive transfer of cytolytic T cell clones in asthma elicited by nasal instillation of Der p 1; assay type: in vivo, mouse
Experimental: BALB/c mice were submitted to 2 series of 3 daily nasal instillations separated by 1 week, using 100 μg of the Der p 1 allergen. The day after the last nasal instillation, mice are sacrificed and checked for the presence of alterations characteristic of allergic asthma in the bronchoalveolar space and lung.
Two additional groups of mice are adoptively transferred with cytolytic T cell clones obtained as described in Example 11 using the Der p 1 peptide with the motif, either prior to or after the first series of nasal instillations.
BALF differential cell counts were carried out 4 days after the last series of nasal instillations (6 BALB/c per group). Cells were obtained by bronchoalveolar lavage of lungs and identified on cytospins as macrophages, neutrophils, eosinophils or lymphocytes. Mice received 2 series of 3 nasal instillations with either 100 μg Der p 1 (model) or NaCl (negative).
Broncho-alveolar lavage fluids were tested for the presence of cytokines (Table 6).

[10] = system: G221N; test: peptide processing assay with effector T cell clone G221N; assay type: cell-based, mouse; conditions: NaN3/deoxyglucose, colchicine, chloroquine
[11] = prior to or after sensitisation

p71-85: alternative major T cell epitope (p71-85) located on Der p 2 (NACHYMKCPLVKGQQ; UniProt P49278 88-102, looked up, fragment) [reference compound]
induction of cytolytic Tregs towards the epitope ([1]; mouse, in vivo): not possible to induce cytolytic Tregs | lysis of WEHI cells loaded with the peptide [2]: 40%

QYIKANSKFIGITELGGCHGSEPCNIHRGKPF (not fully specified (residues 18, 24); cysteine pairing not given here) [mp21-35Asn]
cytolytic clones among CD4+CD25+ T cell clones ([1]; immunised in CFA/IFA): 0/5 | cytolytic clones among CD4+CD25+ T cell clones ([1]; immunised in alum): 8/8

CGFS SNYCQIYPPNANKIR SGGSGGSGG IITIAVVAALLLVAAIFGVASCLIRSRSTKNEANQPLLTDS [SEQ ID. NO: 10]
T cell clones with Treg (cytotoxic) properties derived from immunised mice [3]: All T cell clones obtained after treatment with the construct and re-stimulated in vitro were cytotoxic

SNYCQIYPPNANKIR (dominant T cell epitope of Der p 1 allergen) [SEQ ID. NO: 5, reference compound]
type of T cell clones obtained from immunised mice [4]: produced effector CD4+ T cells

CHGSEPCIIHRGKPF (the p21-35 peptide of Der p 2 allergen) [amino acids 21 to 35 of Der p 2]
fluorescence intensity due to ROS increase [5]: doubling | activation of patients' CD4+ effector T cells [6]: activated CD4+ effector T cells from patients sensitised to Der p 2 | lysis of WEHI cells loaded with the peptide [2]: fully lysed

CHGC AQKKIIAEK (CHGCAQKKIIAEK; thioredox motif sequence CHGC linked to T cell epitope of Bovine beta-lactoglobulin (BLG)) [SEQ ID. NO: 30]
capacity to react to BLG nasal instillation ([7]; 20 μg in alum, 2 SC injections prior to or after sensitisation): completely lost the capacity to react to BLG nasal instillation | eosinophils in bronchoalveolar lavage fluid [7, 11]: lack of eosinophils | hyperreactivity upon challenge with methacholine [7, 11]: absence of hyperreactivity

SNYCQIYPPNANKIR SGGSGGSGG IITIAVVAALLLVAAIFGVASCLIRSRSTKNEANQPLLTDS [SEQ ID. NO: 11, reference compound]
T cell clones with Treg (cytotoxic) properties derived from immunised mice [3]: not from mice that received the control peptide

CHGCEPCIIHRGKPF (p21-35 peptide of Der p2 allergen mutated at residue 24) [SEQ ID. NO: 29]
T cell activation assessed by cytokine production [8]: higher degree of T cell activation | transcription of mRNA for FasL and granzymes [8]: more than its C-x-x-S counterparts

CGFSSNYCQIYPPNANKIR (glutaredoxin-like consensus sequence and dominant T cell epitope of the Der p 1 allergen) [SEQ ID. NO: 7]
type of T cell clones obtained from immunised mice [4]: produced T cell clones with cytolytic properties | BAL IFN-gamma ([9]; Prevention): 0 pg/mL | BAL IL-2 ([9]; Prevention): 0.7 pg/mL | BAL IL-4 ([9]; Prevention): 0 pg/mL | BAL IL-5 ([9]; Prevention): 0.3 pg/mL | BAL IL-10 ([9]; Prevention): 10 pg/mL | BAL IL-13 ([9]; Prevention): 0.2 pg/mL | BAL TGF-beta ([9]; Prevention): 5.8 pg/mL | BAL TNF-alpha ([9]; Prevention): 0.7 pg/mL | BAL IFN-gamma ([9]; Suppression): 0 pg/mL | BAL IL-2 ([9]; Suppression): 0.8 pg/mL | BAL IL-4 ([9]; Suppression): 0.7 pg/mL | BAL IL-5 ([9]; Suppression): 0.5 pg/mL | BAL IL-10 ([9]; Suppression): 2 pg/mL | BAL IL-13 ([9]; Suppression): 0.3 pg/mL | BAL TGF-beta ([9]; Suppression): 0 pg/mL | BAL TNF-alpha ([9]; Suppression): 0 pg/mL

B1: Der p 2: Recombinant full-length Der p 2 produced in Pichia pastoris (protein, UniProt P49278 1-146, looked up)
chain: MMYKILCLSLLVAAVARDQVDVKDCANHEIKKVLVPGCHGSEPCIIHRGKPFQLEAVFEANQNTKTAKIEIKASIDGLEVDVPGIDPNACHYMKCPLVKGQQYDIKYTWNVPKIAPKSENVVVTVKVMGDDGVLACAIATHAKIRD
modifications: full-length recombinant, Pichia pastoris
notes: Recombinant full-length Der p 2 produced in Pichia pastoris
cytolytic clones among CD4+CD25+ T cell clones ([1]; mice immunised with Der p 2): 0/4 | requirement for internalisation, fusion with and acidification of late endosomes [10]: required internalisation into antigen-presenting cells
